According to patent US11920157B2, “Applications of butylidenephthalide” (NATIONAL DONG HWA UNIVERSITY, priority 2016, dated 2024):

Columns and labels:
adipose cells = experiment: Oxygen consumption rate and spare respiratory capacity of adipose cells (XF24 extracellular flux analyser); format: cell-based; conditions: 7 days, vs differentiated adipose cells not treated by BP
Description: As described above, different from white adipose cells, the morphology of brown-like adipose cells/brown adipose cells is characterized by (i) containing numerous adipose droplets, (ii) containing a large number of mitochondria and (iii) having highly expressed uncoupling protein 1 (UCP1). […] Therefore, the number and proportion of brown-like adipose cells/brown adipose cells can be conceived by observing the number of adipose droplets in the cells, the oxygen consumption rate of adipose cells and the gene and protein expressions of UCP1.
After a medium was replaced with a fresh medium, the cells were continuously cultivated at 37° C. for 1 hour. Then, the mitochondrial biosynthesis of cells in each group was separately interfered with 25 μM oligomycin, 0.5 μM FCCP and 5 μM rotenone/antimycin A sequentially, and was continuously detected by a XF24 extracellular flux analyser (purchased from Seahorse Bioscience) prior to and during conduction of the aforementioned interference. The oxygen tension and acidification degree in the culture medium were detected by an adjusted probe to further calculate the oxygen consumption rate and spare respiratory capacity. The results of oxygen consumption rate are shown in FIG. 3A, and the results of basic oxygen consumption rate and spare respiratory capacity are shown in FIG. 3B.

C57BL/6 mice [1] = experiment: Fat browning in subcutaneous and visceral adipose tissue slices of high fat diet mice (H&E stain); format: in vivo; conditions: 18 weeks old, BP oral 250 mg/kg-body weight daily from week 9, cells i.v. 4×10^5 every two weeks from week 11, vs HFD group
Description: (§1) The C57BL/6 mice (purchased from National Laboratory Animal Center, Taiwan) were bred in Laboratory Animal Center of China Medical University, Taiwan (conditions: 3 mice were bred per cage; the temperature of the breeding room ranged from 20° C. to 24° C., and the relative humidity ranged from 50% to 70%; the light cycle was 12 hours; sufficient water and normal diet were supplied daily) until they were 4 weeks old. Then, the mice were randomly divided into seven groups (six mice per group), and individually subjected to the following treatment and experimentation:
(§2) (3) Oral administration of butylidenephthalide (BP) group (i.e., “HFD+BP” group): the mice were continuously fed with a high fat diet, and then simultaneously administered with butylidenephthalide (BP) by oral route at the beginning of the ninth week (dosage amount: every day, 250 mg/kg-body weight) until they were 18 weeks old. […]
B2-3. […] The weight of the subcutaneous adipose tissue and visceral adipose tissue of mice were measured and recorded, and the collected organs were kept at a temperature of −80° C. for following experimentation and analysis. […]

C57BL/6 mice [2] = experiment: Contents of glucose, triglycerides and total cholesterol in blood of high fat diet mice; format: in vivo
Description: as §1
(§3) (3) Oral administration of butylidenephthalide (BP) group (i.e., “HFD+BP” group): the mice were continuously fed with a high fat diet, and then simultaneously administered with butylidenephthalide (BP) by oral route at the beginning of the ninth week (dosage amount: every day, 250 mg/kg-body weight) until they were 18 weeks old.
(§4) (4) Cell infusion of adipose stem cells group (i.e., “HFD+ADSC” group): the mice were continuously fed with a high fat diet, and then simultaneously administered with adipose stem cells by intravenous injection at the beginning of the eleventh week (dosage amount: every two weeks, 4×10^5 cells suspended in 100˜150 μL of normal saline) until they were 18 weeks old (four injections in total).
(5) Oral administration of butylidenephthalide (BP) in combination with cell infusion of adipose stem cells group (i.e., “HFD+BP+ADSC” group): the mice were continuously fed with a high fat diet, then simultaneously administered with butylidenephthalide (BP) by oral route at the beginning of the ninth week (dosage amount: every day, 250 mg/kg-body weight), and further simultaneously administered with adipose stem cells by intravenous injection at the beginning of the eleventh week (dosage amount: every two weeks, 4×10^5 cells suspended in 100˜150 μL of normal saline) until they were 18 weeks old (four injections in total).
(6) Cell infusion of brown-like adipose cells group (i.e., “HFD+BLC” group): the mice were fed with a high fat diet, and then simultaneously administered with brown-like adipose cells provided by Example 1 by intravenous injection at the beginning of the eleventh week (dosage amount: every two weeks, 4×10^5 cells suspended in 100˜150 μL of normal saline) until they were 18 weeks old (four injections in total).
(7) Oral administration of butylidenephthalide (BP) in combination with cell infusion of brown-like adipose cells group (i.e., “HFD+BP+BLC” group): the mice were continuously fed with a high fat diet, then simultaneously administered with butylidenephthalide (BP) by oral route (dosage amount: every day, 250 mg/kg-body weight) at the beginning of the ninth week, and further simultaneously administered with brown-like adipose cells provided by Example 1 by intravenous injection at the beginning of the eleventh week (dosage amount: every two weeks, 4×10^5 cells suspended in 100˜150 μL of normal saline) until they were 18 weeks old (four injections in total).
B2-2. After Example B2-1 was accomplished, the mice was subjected to fast for 12 hours, and then the blood of mice was collected in a serum tube by cardic blood collection. The collected blood was stand for 30 minutes, and then subjected to centrifuge at 3000 rpm, 4° C. for 10 minutes. The supernatant thus provided was collected (i.e., blood sample) and kept at a temperature of 4° C. for following experimentation and analysis.
To understand whether butylidenephthalide (BP) is effective in reducing the contents of glucose, triglycerides and total cholesterol in blood or not, the blood sample of mice in each group provided by Example B2-2 was detected by a SYSMEX K-1000 and TOSHIBA TBA200FA automatic blood analyzer to analyze the contents of glucose, triglycerides and total cholesterol in blood of mice. The results of each group were averaged. Based on the result of “HFD” group, the relative contents of glucose, triglycerides and total cholesterol of each group were calculated.

[3] = Change of mouse weight in high fat diet mice; format: in vivo; conditions: vs HFD group
Description: as §1, §2
B2-1. In the preparation process of above Example A2, the weight change of mice was recorded every week until they were 18 weeks old.
To understand whether butylidenephthalide (BP) is effective in inhibiting weight gain or not, the average value of the recorded weights of mice in each group of Example B2-1 was obtained weekly.

UCP1 = UCP1 gene (RT-PCR) and UCP1 protein (Western blot) expression in adipose cells; format: cell-based; conditions: 7 days
Description: (§5) The adipose cells provided by Example B1-2 were divided into seven groups and independently subjected to the following treatments:
(1) Control group: cells were cultivated in a conditional medium provided by A1 for 7 days;
(§6) (3) BP-10 group: cells were cultivated in a conditional medium that was externally added with butylidenephthalide (BP) (to a final concentration of 10 μg/mL) for 7 days;
(5) Tofacitinib group: cells were cultivated in a conditional medium that was externally added with tofacitinib (to a final concentration of 2 μM) for 7 days (tofacitinib was purchased from UNI-ONWARD Corp. (Taiwan); product number: PZ0017);
(6) Adenosine group: cells were cultivated in a conditional medium that was externally added with adenosine (to a final concentration of 1 μM) for 7 days (adenosine was purchased from UNI-ONWARD Corp. (Taiwan); product number: A4036); and
(7) Proanthocyanidin group: cells were cultivated in a conditional medium that was externally added with proanthocyanidin (to a final concentration of 10 μM) for 7 days (adenosine was purchased from Hong Jing Co., Ltd. (Taiwan); product number: sc-344976).
The cells in each group provided by Example B1-3 were separately collected, and then the total RNA and protein of the cells were individually extracted for the following experimentation.
The total RNA was subjected to reverse transcription to provide cDNA, and then the expression of UCP1 gene of the cells in each group was analyzed by reverse transcription polymerase chain reaction (RT-PCR). The results are shown in FIG. 4A, wherein FABP4 gene was a biomarker of mature adipose cells, and thus, it was used as an internal control of adipose cells in this experimentation. The actin gene was used as an internal control of all the cells. Furthermore, the expression of UCP1 protein of the cells in each group was analyzed by Western blot. The results are shown in FIG. 4B, wherein FABP4 protein was used as an internal control of adipose cells. The actin was used as an internal control of all the cells.

C57BL/6 mice [4] = experiment: Accumulation of white fat: organ appearance and weight of subcutaneous and visceral adipose tissue of high fat diet mice; format: in vivo
Description: as §1, §3, §4
(5) Oral administration of butylidenephthalide (BP) in combination with cell infusion of adipose stem cells group (i.e., “HFD+BP+ADSC” group): the mice were continuously fed with a high fat diet, then simultaneously administered with butylidenephthalide (BP) by oral route at the beginning of the ninth week (dosage amount: every day, 250 mg/kg-body weight), and further simultaneously administered with adipose stem cells by intravenous injection at the beginning of the eleventh week (dosage amount: every two weeks, 4×10^5 cells suspended in 100˜150 μL of normal saline) until they were 18 weeks old (four injections in total). […]
B2-3. […] The weight of the subcutaneous adipose tissue and visceral adipose tissue of mice were measured and recorded, and the collected organs were kept at a temperature of −80° C. for following experimentation and analysis.
To understand whether butylidenephthalide (BP) can alleviate the accumulation of white fat or not, the photos of appearances of the liver, heart, kidney, subcutaneous adipose tissue and visceral adipose tissue of mice in each group recorded in Example B2-3 are shown in FIG. 6A. The weight of subcutaneous adipose tissue and visceral adipose tissue of mice in each group recorded in Example B2-3 were respectively averaged.

adipose stem cells = experiment: Production of adipose droplets in adipose cells differentiated from adipose stem cells (microscope morphology, oil red stain); format: cell-based; conditions: 7 days
Description: A DMEM medium (brand name: GIBCO; product number: 11965092) was used as a basic medium, and rosiglitazone (concentration: 0.5 μM, solvent: dimethyl sulfoxide (DMSO)), insulin (concentration: 170 nM, solvent: culture medium), 3-isobutyl-1-methylxanthine (IBMX; concentration: 0.5 μM, solvent: DMSO) and dexamethasone (concentration: 1 μM, solvent: DMSO) were externally added therein to provide a conditional medium.
The adipose stem cells (ADSCs) were cultivated in a DMEM/F12 medium at 37° C., 5% CO2 for 5 days. […] The results are shown in FIG. 1 (i.e., adipose stem cells (undifferentiated)).
The aforementioned pre-cultivated adipose stem cells provided by Example B1-1 were cultivated in a conditional medium provided by Example A1 at 37° C., 5% CO2 for 7 days to differentiate into adipose cells. […] The results are also shown in FIG. 1 (i.e., adipose cells (differentiated)).
as §5
(2) BP-2 group: cells were cultivated in a conditional medium that was externally added with butylidenephthalide (BP) (to a final concentration of 2 μg/mL) for 7 days (butylidenephthalide (BP) was purchased from ECHO CHEMICAL Co., Ltd. (Taiwan); product number: A10353);
as §6
(4) BP-50 group: cells were cultivated in a conditional medium that was externally added with butylidenephthalide (BP) (to a final concentration of 50 μg/mL) for 7 days;
First, the cell morphology of each group in photos taken in Examples B1-1, B1-2 and B1-3 was observed.
Thereafter, the adipose droplets of adipose stem cells (undifferentiated) provided by Example B1-1, adipose cells (differentiated) provided by Example B1-2 and adipose cells in “BP-2 group”, “BP-10 group” and “BP-50 group” provided by Example B1-3 were stained by oil red dye, and the morphology thereof was taken photos and recorded. Then, the number of adipose droplets of adipose cells in each group was quantified.

[5] = based on the result of HFD group (100)
[6] = high fat diet mice, 18 weeks old, fasted 12 hours, BP oral 250 mg/kg-body weight daily, cells i.v. 4×10^5 every two weeks
[7] = high fat diet mice, vs HFD group
[8] = 18 weeks old, BP oral 250 mg/kg-body weight daily from week 9, cells i.v. 4×10^5 every two weeks from week 11

In the case of `CCCC=C1OC(=O)c2ccccc21` [BP, butylidenephthalide], the “oxygen consumption rate (FIG. 3A)” value (adipose cells; BP 2 μg/mL) is reported as “higher oxygen consumption rate”, the “spare respiratory capacity (FIG. 3B)” value (adipose cells; BP 2 μg/mL) is reported as “higher” and the “oxygen consumption rate (FIG. 3A)” value (adipose cells; BP 10 μg/mL) is reported as “higher oxygen consumption rate”. For the same compound, the “spare respiratory capacity (FIG. 3B)” value (adipose cells; BP 10 μg/mL) was “higher”, the “oxygen consumption rate (FIG. 3A)” value (adipose cells; BP 50 μg/mL) was “higher oxygen consumption rate” and the “spare respiratory capacity (FIG. 3B)” value (adipose cells; BP 50 μg/mL) was “higher”. The “cell morphology of subcutaneous and visceral adipose tissue (FIGS. 5A, 5B)” value (C57BL/6 mice [1]) was “contained the brown adipose cells with numerous small adipose droplets”, the “Relative content of glucose” value (C57BL/6 mice [2]; [5]) was 85 and the “Relative content of total cholesterol” value (C57BL/6 mice [2]; [5]) was 80. The “Relative content of triglycerides” value (C57BL/6 mice [2]; [5]) was 84, the “Glucose (serum)” value (C57BL/6 mice [2]; [6]) was 411.50 ± 43.50 mg/dL and the “Total cholesterol (serum)” value (C57BL/6 mice [2]; [6]) was 157.50 ± 1.50 mg/dL. For the same compound, the “Triglycerides (serum)” value (C57BL/6 mice [2]; [6]) was 213.50 ± 50.50 mg/dL, the “content of glucose in blood, in words” value (C57BL/6 mice [2]; [7]) was “significantly lower” and the “content of total cholesterol in blood (FIG. 8C; printed as triglycerides), in words” value (C57BL/6 mice [2]; [7]) was “significantly lower”. For the same compound, the “content of triglycerides in blood, in words” value (C57BL/6 mice [2]; [7]) was “significantly lower”, the “weights of mice (weight gain, 9 to 18 weeks old, FIG. 7)” value [3] was “increased significantly less” and the “increments of UCP1 gene and UCP1 protein compared with known drugs” value (UCP1; BP 10 μg/mL vs tofacitinib 2 μM, adenosine 1 μM, proanthocyanidin 10 μM) was “higher than that of tofacitinib group, adenosine group and proanthocyanidin group”. For the same compound, the “expression of UCP1 gene (RT-PCR, FIG. 4A)” value (UCP1; BP 10 μg/mL, vs control group) was “significantly increased”, the “expression of UCP1 protein (Western blot, FIG. 4B)” value (UCP1; BP 10 μg/mL, vs control group) was “significantly increased” and the “Subcutaneous adipose tissue (weight, average)” value (C57BL/6 mice [4]; [8]) was 0.24 g. For the same compound, the “Visceral adipose tissue (weight, average)” value (C57BL/6 mice [4]; [8]) was 0.57 g, the “accumulation condition of white fat in visceral (appearance, FIG. 6A)” value (C57BL/6 mice [4]; vs HFD group) was “significantly alleviated” and the “weights of subcutaneous fat and visceral fat, in words” value (C57BL/6 mice [4]; vs HFD group) was “significantly lower”. For the same compound, the “content of adipose droplets (oil red stain, FIGS. 2A, 2B)” value (from here on “content of adipose droplets”) (adipose stem cells; BP 2 μg/mL, vs adipose cells not treated by BP) was “contained more adipose droplets”, the “adipose droplets in cells (microscope morphology, FIG. 1)” value (adipose stem cells; BP 10 μg/mL in conditional medium, vs undifferentiated adipose stem cells and differentiated adipose cells) was “contained more adipose droplets” and the “content of adipose droplets” value (adipose stem cells; BP 10 μg/mL, vs adipose cells not treated by BP and other BP groups) was “highest content of adipose droplets”. The “content of adipose droplets” value (adipose stem cells; BP 50 μg/mL, vs adipose cells not treated by BP) was “contained more adipose droplets”.
